# Legend:
# Assay type in all cases: functional
# [1] = test system: SK-OV-3; test: Growth inhibition of human SKOV3 cells by sulforhodamine B assay
# [2] = test system: SF-268; test: Growth inhibition of human SF268 cells assessed as cell growth at 10^-6 M by sulforhodamine B assay; conditions: read-out: Activity
# [3] = test system: HL-60(TB); test: Growth inhibition of human HL-60(TB) cells assessed as cell growth at 10^-4 M by sulforhodamine B assay; conditions: read-out: Activity
# [4] = test system: OVCAR-5; test: Growth inhibition of human OVCAR5 cells by sulforhodamine B assay
# [5] = test system: SK-MEL-28; test: Growth inhibition of human SK-MEL-28 cells assessed as cell growth at 10^-8 M by sulforhodamine B assay; conditions: read-out: Activity
# [6] = Growth inhibition of human NCI-ADR-RES cells assessed as cell growth at 10^-7 M by sulforhodamine B assay; conditions: read-out: Activity
# [7] = test system: KM12; test: Growth inhibition of human KM12 cells assessed as cell growth at 10^-4 M by sulforhodamine B assay; conditions: read-out: Activity
# [8] = test system: RPMI-8226; test: Growth inhibition of human RPMI8226 cells assessed as cell growth at 10^-7 M by sulforhodamine B assay; conditions: read-out: Activity
# [9] = test system: SK-MEL-2; test: Growth inhibition of human SK-MEL-2 cells assessed as cell growth at 10^-8 M by sulforhodamine B assay; conditions: read-out: Activity
# [10] = test system: RPMI-8226; test: Growth inhibition of human RPMI8226 cells assessed as cell growth at 10^-8 M by sulforhodamine B assay; conditions: read-out: Activity
# [11] = test system: NCI-H460; test: Growth inhibition of human NCI-H460 cells assessed as cell growth at 10^-7 M by sulforhodamine B assay; conditions: read-out: Activity
# [12] = test system: HL-60(TB); test: Growth inhibition of human HL-60(TB) cells assessed as cell growth at 10^-8 M by sulforhodamine B assay; conditions: read-out: Activity
# [13] = test system: UACC-62; test: Growth inhibition of human UACC62 cells assessed as cell growth at 10^-7 M by sulforhodamine B assay; conditions: read-out: Activity
# [14] = test system: MDA-MB-435; test: Growth inhibition of human MDA-MB-435 cells assessed as cell growth at 10^-7 M by sulforhodamine B assay; conditions: read-out: Activity
# [15] = test system: DU-145; test: Growth inhibition of human DU145 cells assessed as cell growth at 10^-8 M by sulforhodamine B assay; conditions: read-out: Activity
# [16] = test system: M14; test: Growth inhibition of human M14 cells assessed as cell growth at 10^-8 M by sulforhodamine B assay; conditions: read-out: Activity
# [17] = test system: HL-60(TB); test: Growth inhibition of human HL-60(TB) cells by sulforhodamine B assay
# [18] = test system: KM12; test: Growth inhibition of human KM12 cells by sulforhodamine B assay
# [19] = test system: NCI-H23; test: Growth inhibition of human NCI-H23 cells assessed as cell growth at 10^-6 M by sulforhodamine B assay; conditions: read-out: Activity
# [20] = test system: IGROV-1; test: Growth inhibition of human IGROV1 cells assessed as cell growth at 10^-8 M by sulforhodamine B assay; conditions: read-out: Activity
# [21] = test system: SF-295; test: Growth inhibition of human SF295 cells assessed as cell growth at 10^-4 M by sulforhodamine B assay; conditions: read-out: Activity
# [22] = test system: SW-620; test: Growth inhibition of human SW620 cells assessed as cell growth at 10^-8 M by sulforhodamine B assay; conditions: read-out: Activity
# [23] = test system: SF-268; test: Growth inhibition of human SF268 cells assessed as cell growth at 10^-8 M by sulforhodamine B assay; conditions: read-out: Activity
# [24] = test system: MOLT-4; test: Growth inhibition of human MOLT4 cells by sulforhodamine B assay
# [25] = test system: RXF 393; test: Growth inhibition of human RXF393 cells assessed as cell growth at 10^-4 M by sulforhodamine B assay; conditions: read-out: Activity
# [26] = test system: OVCAR-8; test: Growth inhibition of human OVCAR8 cells by sulforhodamine B assay
# [27] = test system: SK-MEL-28; test: Growth inhibition of human SK-MEL-28 cells assessed as cell growth at 10^-6 M by sulforhodamine B assay; conditions: read-out: Activity
# [28] = test system: SN12C; test: Growth inhibition of human SN12C cells assessed as cell growth at 10^-6 M by sulforhodamine B assay; conditions: read-out: Activity
# [29] = test system: MOLT-4; test: Growth inhibition of human MOLT4 cells assessed as cell growth at 10^-8 M by sulforhodamine B assay; conditions: read-out: Activity
# [30] = test system: NCI-H460; test: Growth inhibition of human NCI-H460 cells assessed as cell growth at 10^-4 M by sulforhodamine B assay; conditions: read-out: Activity
# [31] = test system: HOP-62; test: Growth inhibition of human HOP62 cells assessed as cell growth at 10^-6 M by sulforhodamine B assay; conditions: read-out: Activity
# [32] = test system: SW-620; test: Growth inhibition of human SW620 cells assessed as cell growth at 10^-4 M by sulforhodamine B assay; conditions: read-out: Activity
# [33] = test system: LOX IMVI; test: Growth inhibition of human LOXIMVI cells assessed as cell growth at 10^-6 M by sulforhodamine B assay; conditions: read-out: Activity
# [34] = Growth inhibition of human HCC2998 cells by sulforhodamine B assay
# [35] = test system: DU-145; test: Growth inhibition of human DU145 cells assessed as cell growth at 10^-7 M by sulforhodamine B assay; conditions: read-out: Activity
# [36] = test system: T47D; test: Growth inhibition of human T47D cells assessed as cell growth at 10^-8 M by sulforhodamine B assay; conditions: read-out: Activity
# [37] = test system: RPMI-8226; test: Growth inhibition of human RPMI8226 cells by sulforhodamine B assay
# [38] = test system: A549; test: Growth inhibition of human A549/ATCC cells assessed as cell growth at 10^-4 M by sulforhodamine B assay; conditions: read-out: Activity
# [39] = test system: OVCAR-4; test: Growth inhibition of human OVCAR4 cells assessed as cell growth at 10^-8 M by sulforhodamine B assay; conditions: read-out: Activity
# [40] = test system: SN12C; test: Growth inhibition of human SN12C cells assessed as cell growth at 10^-4 M by sulforhodamine B assay; conditions: read-out: Activity
# [41] = read-out: LC50 (the source's name)
# [42] = read-out: pLC50 (the source's name) (converted)
smiles,measurement,setting,value
CC(C)=CC(=O)O[C@@H]1CC(C)(C)C[C@H]2C3=CC[C@@H]4[C@@]5(C)CCC(=O)C(C)(C)[C@@H]5CC[C@@]4(C)[C@]3(C)CC[C@@]12C(=O)O,GI50,[1]; read-out: GI50,16.6 µM
same,CC50,[1]; [41],> 100 µM
same,TGI,[1]; read-out: TGI,> 100 µM
same,GI50,[1]; read-out: pGI50 (converted),16.6 µM
same,CC50,[1]; [42],> 100 µM
same,TGI,[1]; read-out: pTGI (converted),> 100 µM
same,growth at 1 µM,[2],93%
same,growth at 100 µM,[3],-38%
same,GI50,[4]; read-out: GI50,6.53 µM
same,CC50,[4]; [41],> 100 µM
same,TGI,[4]; read-out: TGI,32.7 µM
same,GI50,[4]; read-out: pGI50 (converted),6.61 µM
same,CC50,[4]; [42],> 100 µM
same,TGI,[4]; read-out: pTGI (converted),32.4 µM
same,growth at 0.01 µM,[5],108%
same,growth at 0.1 µM,[6],95%
same,growth at 100 µM,[7],-69%
same,growth at 0.1 µM,[8],91%
same,growth at 0.01 µM,[9],94%
same,growth at 0.01 µM,[10],101%
same,growth at 0.1 µM,[11],101%
same,growth at 0.01 µM,[12],106%
same,growth at 0.1 µM,[13],97%
same,growth at 0.1 µM,[14],98%
same,growth at 0.01 µM,[15],105%
same,growth at 0.01 µM,[16],98%
same,GI50,[17]; read-out: GI50,2.21 µM
same,CC50,[17]; [41],> 100 µM
same,TGI,[17]; read-out: TGI,5.38 µM
same,GI50,[17]; read-out: pGI50 (converted),2.19 µM
same,CC50,[17]; [42],> 100 µM
same,TGI,[17]; read-out: pTGI (converted),5.37 µM
same,GI50,[18]; read-out: GI50,0.879 µM
same,LC50 (50% net cell kill),[18]; read-out: LC50,59.3 µM
same,TGI,[18]; read-out: TGI,15.3 µM
same,GI50,[18]; read-out: pGI50 (converted),0.871 µM
same,LC50 (50% net cell kill),[18]; read-out: pLC50 (converted),58.9 µM
same,TGI,[18]; read-out: pTGI (converted),15.5 µM
same,growth at 1 µM,[19],88%
same,growth at 0.01 µM,[20],103%
same,growth at 100 µM,[21],-59%
same,growth at 0.01 µM,[22],100%
same,growth at 0.01 µM,[23],96%
same,GI50,[24]; read-out: GI50,2.92 µM
same,CC50,[24]; [41],> 100 µM
same,TGI,[24]; read-out: TGI,20.6 µM
same,GI50,[24]; read-out: pGI50 (converted),2.95 µM
same,CC50,[24]; [42],> 100 µM
same,TGI,[24]; read-out: pTGI (converted),20.4 µM
same,growth at 100 µM,[25],-67%
same,GI50,[26]; read-out: GI50,3.81 µM
same,CC50,[26]; [41],> 100 µM
same,TGI,[26]; read-out: TGI,> 100 µM
same,GI50,[26]; read-out: pGI50 (converted),3.8 µM
same,CC50,[26]; [42],> 100 µM
same,TGI,[26]; read-out: pTGI (converted),> 100 µM
same,growth at 1 µM,[27],103%
same,growth at 1 µM,[28],80%
same,growth at 0.01 µM,[29],107%
same,growth at 100 µM,[30],-54%
same,growth at 1 µM,[31],100%
same,growth at 100 µM,[32],-22%
same,growth at 1 µM,[33],87%
same,GI50,"[34]; HCC 2998, read-out: GI50",3.05 µM
same,CC50,"[34]; HCC 2998, read-out: LC50 (the source's name)",58.6 µM
same,TGI,"[34]; HCC 2998, read-out: TGI",13.4 µM
same,GI50,"[34]; HCC 2998, read-out: pGI50 (converted)",3.02 µM
same,CC50,"[34]; HCC 2998, read-out: pLC50 (the source's name) (converted)",58.9 µM
same,TGI,"[34]; HCC 2998, read-out: pTGI (converted)",13.5 µM
same,growth at 0.1 µM,[35],105%
same,growth at 0.01 µM,[36],103%
same,GI50,[37]; read-out: GI50,1.46 µM
same,CC50,[37]; [41],> 100 µM
same,TGI,[37]; read-out: TGI,23.3 µM
same,GI50,[37]; read-out: pGI50 (converted),1.48 µM
same,CC50,[37]; [42],> 100 µM
same,TGI,[37]; read-out: pTGI (converted),23.4 µM
same,growth at 100 µM,[38],-41%
same,growth at 0.01 µM,[39],99%
same,growth at 100 µM,[40],-38%

# — ChEMBL document CHEMBL2413072, “Synthesis and in vitro anticancer studies of novel C-2 arylidene congeners of lantadenes” (2013)
